# From patent US12583839B2, “PD-L1 antagonist compound” (ADLAI NORTYE BIOPHARMA CO., LTD., priority 2019, dated 2026)
# pEC50: −log10 of the molar value.
# Target: T1, PD-1/PD-L1 (Homo sapiens, UniProt Q9NZQ7)
# T1 construct: 60535 (PD-1/NFAT-Reporter-Jurkat); host or cells: CHO cells expressing PD-L1; Jurkat cells expressing PD-1
# Assay: Detection of biological activity of PD-1/PD-L1 signaling inhibition at the cellular level (NFAT luciferase reporter, PD-1/NFAT-Reporter-Jurkat cells co-cultured with TCR activator/PD-L1-CHO cells)
# Assay type: cell-based
# Details: PD-1/NFAT-Reporter-Jurkat + TCR activator/PD-L1-CHO co-culture, 6 hours; Atezolizumab as positive control
# Method in brief: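 CHO cells expressing PD-L1 and a TCR activator were seeded overnight at 37° C, pre-treated with compound for 30 minutes, then co-cultured 6 hours with Jurkat cells carrying PD-1 and an NFAT-luciferase reporter. Luminescence was read, and inhibition % was normalised between 0.1% DMSO and about 10 nM atezolizumab controls.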
# T1 sequence (Q9NZQ7 19-290): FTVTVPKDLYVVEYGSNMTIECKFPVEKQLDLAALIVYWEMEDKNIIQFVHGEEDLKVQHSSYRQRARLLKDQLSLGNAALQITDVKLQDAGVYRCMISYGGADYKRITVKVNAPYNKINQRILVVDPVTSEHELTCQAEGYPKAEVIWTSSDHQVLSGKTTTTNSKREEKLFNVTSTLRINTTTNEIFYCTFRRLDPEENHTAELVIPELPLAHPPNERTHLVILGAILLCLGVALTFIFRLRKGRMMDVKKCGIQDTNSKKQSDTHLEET
row,Structure (SMILES),pEC50
1,COc1cc(-c2cccc(-c3cccc4c3cnn4Cc3cc(OC)c(CN(C)C45CCC(C(=O)O)(CC4)CC5)cc3Cl)c2Cl)ccc1CNC[C@@H]1CCC(=O)N1 [Compound 105],7.70
2,COc1cc(Cn2ncc3c(-c4cccc(-c5cc(F)c(CNC[C@@H]6CCC(=O)N6)c(OC)c5)c4Cl)cccc32)c(Cl)cc1CN(C)[C@H]1CC[C@H](/C=C/C(=O)O)CC1 [Compound 132],7.64
3,COc1nc(Cn2ncc3c(-c4cccc(-c5ccc(CNC[C@@H]6CCC(=O)N6)cc5)c4Cl)cccc32)c(Cl)cc1CN[C@@H](CO)C(=O)O [Compound 80],6.52
4,COc1cc(-c2cccc(-c3cccc4c3cnn4Cc3cc(OC)c(CN(C)C4CCC(C(=O)O)CC4)cc3C#N)c2Cl)ccc1CNC[C@@H]1CCC(=O)N1 (stereo partly drawn) [Compound 107],7.70
5,COc1cc(-c2cccc(-c3c(Cl)ccc4c3cnn4Cc3cc(OC)c(CN[C@@H](CO)C(=O)O)cc3Cl)c2Cl)ccc1CNC[C@@H]1CCC(=O)N1 [Compound 154],6.41
6,COc1cc(Cn2ncc3c(-c4cccc(-c5cc(F)c(CNC[C@@H]6CCC(=O)N6)c(OC)c5)c4Cl)cccc32)c(Cl)cc1CN(C)C[C@H]1CC[C@H](CC(=O)O)CC1 [Compound 130],6.87
7,COc1cc(Cn2ncc3c(-c4cccc(-c5ccc(CNC[C@@H]6CCC(=O)N6)c(OC)n5)c4Cl)cccc32)c(Cl)c(F)c1CN(C)C12CCC(C(=O)O)(CC1)CC2 [Compound 157],7.05
8,COc1cc(-c2cccc(-c3cccc4c3cnn4Cc3cc(OC)c(CN(C)[C@H]4C[C@H](C(=O)O)C4)cc3Cl)c2Cl)ccc1CNC[C@@H]1CCC(=O)N1 [Compound 93],7.68
9,CCOc1cc(Cn2ncc3c(-c4cccc(-c5ccc(CNC[C@@H]6CCC(=O)N6)c(OC)c5)c4Cl)cccc32)c(Cl)cc1CN(C)C[C@H]1CC[C@H](C(=O)O)CC1 [Compound 124],7.04
10,COc1cc(-c2cccc(-c3cccc4c3cnn4Cc3cc(OC)c(CN4CC[C@@H](C(=O)O)C4)cc3Cl)c2Cl)ccc1CNCCO [Compound 88],7.10
11,N#Cc1cncc(COc2cc(Cn3ncc4c(-c5cccc(-c6ccc(CNC[C@@H]7CCC(=O)N7)cc6)c5Cl)cccc43)c(Cl)cc2CNCCO)c1 [Compound 24],7.27
12,COc1cc(-c2cccc(-c3cccc4c3cnn4Cc3cc(OC)c(CN[C@H]4CC[C@H](C(=O)O)CC4)cc3Cl)c2Cl)ccc1CNC[C@@H]1CCC(=O)N1 [Compound 56],7.30
13,COc1cc(Cn2ncc3c(-c4cccc(-c5ccc(CNC[C@@H]6CCC(=O)N6)cc5)c4Cl)cccc32)c(Cl)cc1CN[C@@H](CO)C(=O)O [Compound 30],7.09
14,COc1cc(-c2cccc(-c3cccc4c3cnn4Cc3cc(OC)c(CN(C)[C@H]4CC[C@@H](C(=O)O)CC4)cc3Cl)c2Cl)ccc1CNC[C@@H]1CCC(=O)N1 [Compound 60],7.48
15,COc1cc(-c2cccc(-c3cccc4c3cnn4Cc3cc(OC)c(CN(C)C4CCC(CC(=O)O)CC4)cc3C(F)(F)F)c2Cl)ccc1CNC[C@@H]1CCC(=O)N1 (stereo partly drawn) [Compound 146],7.55
16,N#Cc1cncc(COc2cc(Cn3ncc4c(-c5cccc(-c6ccc(CN7CC[C@@H](O)C7)cc6)c5Cl)cccc43)c(Cl)cc2CN[C@@H](CO)C(=O)O)c1 [Compound 1],7.08
17,COc1cc(-c2cccc(-c3cccc4c3cnn4Cc3cc(OC)c(CN4CC[C@@H](C(=O)O)C4)cc3Cl)c2C)ccc1CNC[C@@H]1CCC(=O)N1 [Compound 90],6.82
18,COc1cc(-c2cccc(-c3cccc4c3cnn4Cc3nc(OC)c(CN(C)[C@H]4CC[C@H](C(=O)O)CC4)cc3Cl)c2Cl)ccc1CNC[C@@H]1CCC(=O)N1 [Compound 151],7.20
